{
  "source": "patent US8258175B2",
  "about": "“Isoindolin-1-one derivatives” (Cancer Research Technology Limited, priority 2004, dated 2012)",
  "key": {"MDM2-p53 interaction [1]": {"target": "T1, MDM2-p53 interaction (Homo sapiens, UniProt Q00987)", "T1 construct": "made in house; host or cells: in vitro translation (cell-free)", "T1 sequence (Q00987 whole entry)": "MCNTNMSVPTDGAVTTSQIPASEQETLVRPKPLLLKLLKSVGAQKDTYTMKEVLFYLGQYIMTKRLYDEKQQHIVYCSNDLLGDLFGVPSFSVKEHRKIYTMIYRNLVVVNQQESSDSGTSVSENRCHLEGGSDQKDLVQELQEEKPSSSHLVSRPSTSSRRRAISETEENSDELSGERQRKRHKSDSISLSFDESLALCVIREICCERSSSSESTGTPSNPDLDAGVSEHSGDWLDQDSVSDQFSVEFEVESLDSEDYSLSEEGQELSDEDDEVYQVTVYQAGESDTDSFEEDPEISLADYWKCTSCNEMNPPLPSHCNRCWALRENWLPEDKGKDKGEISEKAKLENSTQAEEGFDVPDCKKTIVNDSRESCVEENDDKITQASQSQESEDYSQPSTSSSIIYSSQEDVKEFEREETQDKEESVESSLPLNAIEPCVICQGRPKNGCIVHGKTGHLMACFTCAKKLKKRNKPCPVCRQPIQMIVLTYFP", "test": "Preliminary screening, in vitro MDM2-p53 binding assay", "settings": "preliminary screening studies; read-out: IC50 (inhibition of the MDM2-p53 interaction)", "source_text": "Studies of the p53 binding pocket on the MDM2 protein guided the nature of the molecules synthesised. Thus the present invention provides small molecule inhibitors of MDM2-p53 interaction based on an isoindolinone scaffold."}, "MDM2-p53 interaction [2]": {"target": "T1, MDM2-p53 interaction", "test": "ELISA assay of MDM2-p53 complex formation (MDM2 binding to immobilised IP3 p53-derived peptide)", "settings": "n=3 independent determinations; 5% DMSO; interpolated from three standard concentrations", "procedure": "Streptavidin-coated 96-well plates are used to immobilise a biotin-tagged IP3 p53-derived peptide ([…]). This is a peptide analogue derived from the p53 binding site for MDM2 ([…]). […] Aliquots of MDM2 generated by in vitro translation are pre-incubated for 20 minutes at room temperature (i.e. 20-25° C.) with test compounds and controls, before transfer into the IP3-coated 96-well plates. Following a further incubation period of 90 minutes at 4° C., the plates are washed to remove unbound MDM2 and the residual bound MDM2 is detected using a primary monoclonal antibody (MDM2 Ab-1, clone IF2, Oncogene Research Products) and HRP-conjugated secondary antibody (Goat anti-mouse, Dako PO447). The HRP (horseradish peroxidase) is measured by a chemiluminescence reaction using standard reagents (Amersham Pharmacia™ RPN 2106) and an automatic injection 96-well plate illuminometer (EG & G Berthold Microplate LB 96V).\nCompound NU8231 is currently included as a standard “lead compound” positive control. […] The AP peptide is included as a positive control for biological evaluation of the isoindolinones in the cell free binding assays.\nAll compounds are dissolved in DMSO and tested at three standard concentrations (initially 20 μM, 100 μM and 500 μM) in the presence of a fixed final concentration of 5% DMSO. The percentage inhibition of complex formation is expressed relative to a DMSO only control and an IC50, defined as the concentration required for 50% inhibition of MDM2-p53 complex formation, determined by interpolation."}, "[3]": {"test_system": "SJSA cells (MDM2 amplified)", "test": "Western blot of SJSA cells treated with compound", "format": "cell-based", "settings": "SJSA cells, 5, 10 and 20 μM, lysed at 6 hours", "procedure": "Osteosarcoma cell line SJSA-1 was plated out in 55 mm dishes at a density of 2.5×10^5 cells in 3 mL of RPMI 1640 medium (Sigma) supplemented with 10% foetal bovine serum (FBS, Gibco), 1% (v/v) HEPES (Gibco), 1% (v/v) sodium pyruvate (Gibco) and 1.25 g/500 ml glucose (Sigma) for 48 hours in a 37° C. humidified incubator (Sanyo, MCO 20AIC) at a CO2 concentration of 5%.\nThe dishes were treated with NU8231 at a final concentration of 5, 10, and 20 μM (at 1% DMSO) together with a 1% DMSO and an untreated control sample for 6 hours. The medium was then aspirated and the dishes were washed with 3 mL of cold PBS. The cells were then lysed in 40 μL of Sodium Dodecyl Sulphate (SDS, Sigma) lysis buffer, boiled at 100° C. for 10 minutes before sonication for 3×5 seconds at 20 microns (Soniprep 150, MSE).\nThe protein concentration for each of the samples was then determined using BCA Protein Assay Kit (Pierce), and 1:1 loading buffer consisting of β-mercaptoethanol (Sigma) and 0.5% bromophonol-blue (Sigma) were added to 40 μg of protein and made up to a final volume of 30 μL and boiled for 5 minutes at 100° C.\nThe samples were then loaded onto a precast 4-20% gradient polyacrylamide Tris-Glycine gels (15 wells, 1.5 mm thickness, Invitrogen Life Technologies), along with a pre-stained marker protein (SeeBlue, Invitrogen). The Gels were processed in Novex XCell (Invitrogen) at 180V and blotted onto a High Bond C membrane (Amersham Life Science) overnight at 30V.\nThe membrane was then blocked for one hour at room temperature in TBS-Tween containing 5% non-fat milk (TBST-M) followed by incubation with primary antibodies for MDM2 (MDM2-Ab1, 1:500, Oncogene), p53 (p53-D07, 1:1000, Novacastra), p21 (p21 Ab1, 1:100, Oncogene) and Actin (Actin AC40, 1:1000, Sigma) in PBST-M for 1 hour.\nThe membrane was then washed three times in TBST (15 minutes per wash) and then incubated for an additional 1 hour with a anti mouse or a rabbit horseradish peroxidase (HRP) secondary antibody (Dako, 1:1000) in PBST-M followed by a final wash consisting of six washes with TBST at 5 minutes per wash. […]"}, "MDM2": {"target": "MDM2 (Homo sapiens, UniProt Q00987)", "sequence (Q00987 whole entry)": "as above", "settings": "Stoll et al 2001; cited from earlier work"}},
  "note": "Where no end group is shown, it is not given here.",
  "data": [
    {"compound": "CCCOC1(c2ccccc2)c2ccccc2C(=O)N1Cc1ccccc1", "note": "(stereo not drawn) [NU8001, 2-benzyl-3-phenyl-3-propoxy isoindolin-1-one]", "values": [
      {"measurement": "IC50", "setting": "MDM2-p53 interaction [1]", "value": "~200", "unit": "µM"}
    ]},
    {"compound": "CCCNC1(c2ccccc2)c2ccccc2C(=O)N1Cc1ccccc1", "note": "(stereo not drawn) [NU8006, 2-benzyl-3-phenyl-3-(propylamino)isoindolin-1-one]", "values": [
      {"measurement": "IC50", "setting": "MDM2-p53 interaction [1]", "value": "~200", "unit": "µM"}
    ]},
    {"compound": "CCCOC1(c2ccccc2)c2ccccc2C(=O)N1CCC", "note": "(stereo not drawn) [NU8009, 2-propyl-3-phenyl-3-propoxy isoindolinin-1-one]", "values": [
      {"measurement": "IC50", "setting": "MDM2-p53 interaction [1]", "value": "~200", "unit": "µM"}
    ]},
    {"compound": "CCCN1C(=O)c2ccccc2C1(OCc1ccc(C(C)(C)C)cc1)c1ccccc1", "note": "(stereo not drawn) [NU8223, 3-(4-tert-Butylbenzyloxy)-3-phenyl-2-propyl-2,3-dihydroisoindolin-1-one]", "values": [
      {"measurement": "melting point", "value": "118.7 to 119.9", "unit": "°C"},
      {"measurement": "IC50", "setting": "MDM2-p53 interaction [2]", "value": "> 500", "unit": "µM"}
    ]},
    {"compound": "CCCN1C(=O)c2ccccc2C1(OCc1cc(OC)c(O)c(OC)c1)c1ccc(Cl)cc1", "note": "(stereo not drawn) [NU8231, 3-(4-Chlorophenyl)-3-(4-hydroxy-3,5-dimethoxybenzyloxy)-2-propyl-2,3-dihydroisoindolin-1-one]", "values": [
      {"measurement": "MDM2 level (Western blot)", "setting": "[3]", "value": "dose dependent increase"},
      {"measurement": "p21 level (Western blot)", "setting": "[3]", "value": "dose dependent increase"},
      {"measurement": "p53 levels (Western blot)", "setting": "[3]", "value": "No change"}
    ]},
    {"compound": "IP3: biotin-tagged p53-derived peptide (MPRFMDYWEGLN), analogue derived from the p53 binding site for MDM2 (also: biotin tag, place not given here)", "values": [
      {"measurement": "affinity for MDM2 relative to the native p53 peptide", "setting": "MDM2", "value": "higher affinity for MDM2 than the native peptide"}
    ]}
  ]
}
